Data published in publication PMC4885879, “Genomic Rearrangements and Functional Diversification of lecA and lecB Lectin-Coding Regions Impacting the Efficacy of Glycomimetics Directed against Pseudomonas aeruginosa” (Frontiers in Microbiology, 2016).

Columns and labels:
LecBPA7 [1] = target: T1, LecBPA7 (Pseudomonas paraeruginosa, UniProt A6V267); assay: ITC; type: binding; design: gene PSPA7_1769; recombinant LecBPA7
LecBPA7 [2] = target: T1, LecBPA7; assay: X-ray crystal structure ([…] Å) and ITC; type: binding; design: gene PSPA7_1769; recombinant LecBPA7, 114 amino acids, tetramer

T1 sequence (A6V267 entry or part of it): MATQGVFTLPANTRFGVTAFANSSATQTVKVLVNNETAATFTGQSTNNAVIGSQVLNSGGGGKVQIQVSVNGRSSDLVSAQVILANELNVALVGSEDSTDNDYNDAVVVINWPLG

Row | SMILES | Kd (LecBPA7 [1]) [nM] | Kd (LecBPA7 [2]) [nM]
1 | CO[C@@H]1O[C@@H](C)[C@@H](O)[C@@H](O)[C@@H]1O [FucOMe, methyl α-L-fucoside] | 2200 | 
2 | CC(=O)N[C@H]1[C@H](O[C@H]2[C@@H](O)[C@@H](CO)OC(O)[C@@H]2O)O[C@H](CO)[C@@H](O[C@@H]2O[C@@H](C)[C@@H](O)[C@@H](O)[C@@H]2O)[C@@H]1O[C@@H]1O[C@H](CO)[C@H](O)[C@H](O)[C@H]1O (stereo partly drawn) [Lewis^a tetrasaccharide] |  | 2010
3 | CO[C@H]1O[C@H](CO)[C@@H](O)[C@H](O)[C@@H]1O [ManOMe, methyl α-D-mannoside] | 73000 | 
